Patent publication US20220249535A1, “COMPOSITIONS COMPRISING NICOTINAMIDE ADENINE DINUCLEOTIDE-RELATED COMPOUNDS AND USE THEREOF” (Rejuvenation Therapeutics, priority 2019, published 2022)

Legend:
NAD+ levels in the blood = assay: Blood NAD+ level in subjects during daily oral dosing (Example 1); type: in vivo, human
Description: Study Design • In this study, safety, pharmacokinetics, and pharmacodynamics of NAM, NA, NMN, and NR were studied. Before receiving the first oral dose of NAM, NA, NMN, and NR formulated as a dietary supplement, but after screening and informed consent, eligible subjects underwent blood and urine samplings on Day 1 to establish baseline levels of NAD+ and other compounds. Subsequently, each subject received one of the following dosages: • 1. daily doses of 1000 mg NR for 7 days: • 2. daily doses of NR 300 mg for 14 days and then added NAM 1000 mg for 7 days; • 3. daily doses of 300 mg NR for 7 days; • 4. daily doses of 1000 mg NAD+ for 7 days; • 5. daily doses of 1000 mg NAM for 14 days: • 6. daily doses of 300 mg NA for 14 days: • 7. daily doses of 1000 mg NMN for 7 days: • 8. daily doses of NAM, NA, NMN, and NR, one at a time, including 300 mg NA and 300 mg NR for 11 days followed by 300 mg NA, 300 mg NR, and 1000 mg NAM for 11 days; • 9. daily doses of 300 mg NR and 1000 mg NAM for 9 days; • 10. daily doses of NAM, NA, and NR, one at a time, including 300 mg NA and 300 mg NR for 11 days followed by 300 mg NA, 300 mg NR, and 1000 mg NAM for 11 days. • Each subject underwent serial blood and urine sampling during the daily dosing of NAM, NA, NMN, and NR, or a mixture of the foregoing.
Inclusion Criteria: • 1. Healthy male or female, age>18 years. • 2. Signed, informed consent. • 3. […] Healthy as determined by laboratory results and medical history. • 5. Agrees to maintain current level of physical activity throughout the study. • 6. Agrees to avoid study compounds for 30 days prior to enrollment and during the study 7. • 7. Agrees to avoid nutritional yeast, whey proteins, energy drinks, pomegranate, pomegranate juice, grapefruit, grapefruit juice and alcohol 7 days prior to enrollment and during study • 8. Willingness and ability to comply with scheduled visits, cell phone calls, treatment plans, laboratory tests, and completion of other study procedures as specified in the protocol.
Exclusion Criteria: • 1. Women who were pregnant, breastfeeding, or planning to became pregnant during the course of the trial. • 2. Subjects who were smokers • 3. Unstable medical conditions as determined by the Investigator • 4. Immunocompromised individuals such as subjects that had undergone organ transplantation or subjects diagnosed with human immunodeficiency virus (HIV) • 5. Clinically significant abnormal lab results at screening (e.g., AST, ALT or ALP>2×ULN, and/or bilirubin>1×ULN) • 6. Subjects who had planned surgery during the course of the trial • 7. History of or current diagnosis of any cancer (except for successfully treated basal cell carcinoma) diagnosed less than 5 years prior to screening. Subjects with cancer in full remission more than 5 years after diagnosis were acceptable • 8. History of blood/bleeding disorders • 9. Blood donation in the past 2 months • 10. Alcohol abuse (>2 standard alcoholic drinks per day) or drug abuse within the past 6 months • 11. Participation in a clinical research trial within 30 days prior to randomization • 12. Allergy or sensitivity to study supplement ingredients provided during the study • 13. Individuals who were cognitively impaired and/or who were unable to give informed consent. • 14. Any other condition which in the Investigator's opinion may adversely affect the subject's ability to complete the study or its measures or which may pose significant risk to the subject
Clinical Data and Sample Collections • 1. Height, weight, temperature, BP, heart rate, demographics • 2. Physical examination • 3. Medical history, concomitant dietary supplements (if any) and concomitant medications (if any) • 4.

[1] = compared with NAM; cited from earlier work
[2] = after NMN supplementation; through the liver and bloodstream intact into muscle; cited from earlier work
[3] = murine plasma or fetal-bovine-serum containing culture medium; cited from earlier work

Compound: O=C(O)c1cccnc1 [NA, nicotinic acid]
- NAD+ level in response to intake (NAD+ levels in the blood; 300 mg daily for 14 days): increasing NAD+ levels

Compound: NC(=O)c1cccnc1 [NAM, nicotinamide]
- NAD+ level in response to intake (NAD+ levels in the blood; 1000 mg daily for 14 days): increasing NAD+ levels

Compound: NC(=O)c1ccc[n+]([C@@H]2O[C@H](COP(=O)([O-])O)[C@@H](O)[C@H]2O)c1 [NMN, nicotinamide mononucleotide]
- NAD+ level in response to intake (NAD+ levels in the blood; 1000 mg daily for 7 days): increasing NAD+ levels
- Retention in the body [1]: retained in the body for longer than NAM
- Time to metabolism to NAD+ [2]: ≤ 30 min

Compound: NC(=O)c1ccc[n+]([C@@H]2O[C@H](CO)[C@@H](O)[C@H]2O)c1 [NR, nicotinamide riboside]
- Stability [3]: can quickly degrade into NAM
- NAD+ level in response to intake (NAD+ levels in the blood; 300 mg daily for 14 days): increasing NAD+ level
- NAD+ level in response to intake (NAD+ levels in the blood; 1000 mg daily for 7 days): increasing NAD+ levels

Compound: Nicotinamide adenine dinucleotide [NAD+]
- NAD+ level in response to intake (NAD+ levels in the blood; 1000 mg daily for 7 days): increasing NAD+ level
- NAD+ level in response to intake (NAD+ levels in the blood; 1000 mg daily for 7 days, listed as NAD): increasing NAD+ levels
